Experimental data from ChEMBL document CHEMBL5584270, “Synthesis and Evaluation of 1,3-Disubstituted Imidazolidine-2,4,5-triones as Inhibitors of Pyruvate Carboxylase” (ACS Med Chem Lett, 2024).
pIC50, pKi: −log10 of the molar value. Activity calls are given as the source filed them. No cut-off for these calls is given here.

Assays:
[1] = biological target: Macrophage metalloelastase (Homo sapiens) (UniProt P39900); experiment: Inhibition of MMP-12 (unknown origin) at 50 uM
[2] = biological target: T1, Pyruvate carboxylase (Staphylococcus aureus (strain Mu50 / ATCC 700699), UniProt A0A0H3JRU9); experiment: Inhibition of Staphylococcus aureus Pyruvate carboxylase using pyruvate, HCO3-, ATP and NADH as substrate assessed as oxaloacetate formation by measuring NADH oxidation by spectrophotometry based malate dehydrogenase coupled enzyme assay
T1 sequence (A0A0H3JRU9 whole entry): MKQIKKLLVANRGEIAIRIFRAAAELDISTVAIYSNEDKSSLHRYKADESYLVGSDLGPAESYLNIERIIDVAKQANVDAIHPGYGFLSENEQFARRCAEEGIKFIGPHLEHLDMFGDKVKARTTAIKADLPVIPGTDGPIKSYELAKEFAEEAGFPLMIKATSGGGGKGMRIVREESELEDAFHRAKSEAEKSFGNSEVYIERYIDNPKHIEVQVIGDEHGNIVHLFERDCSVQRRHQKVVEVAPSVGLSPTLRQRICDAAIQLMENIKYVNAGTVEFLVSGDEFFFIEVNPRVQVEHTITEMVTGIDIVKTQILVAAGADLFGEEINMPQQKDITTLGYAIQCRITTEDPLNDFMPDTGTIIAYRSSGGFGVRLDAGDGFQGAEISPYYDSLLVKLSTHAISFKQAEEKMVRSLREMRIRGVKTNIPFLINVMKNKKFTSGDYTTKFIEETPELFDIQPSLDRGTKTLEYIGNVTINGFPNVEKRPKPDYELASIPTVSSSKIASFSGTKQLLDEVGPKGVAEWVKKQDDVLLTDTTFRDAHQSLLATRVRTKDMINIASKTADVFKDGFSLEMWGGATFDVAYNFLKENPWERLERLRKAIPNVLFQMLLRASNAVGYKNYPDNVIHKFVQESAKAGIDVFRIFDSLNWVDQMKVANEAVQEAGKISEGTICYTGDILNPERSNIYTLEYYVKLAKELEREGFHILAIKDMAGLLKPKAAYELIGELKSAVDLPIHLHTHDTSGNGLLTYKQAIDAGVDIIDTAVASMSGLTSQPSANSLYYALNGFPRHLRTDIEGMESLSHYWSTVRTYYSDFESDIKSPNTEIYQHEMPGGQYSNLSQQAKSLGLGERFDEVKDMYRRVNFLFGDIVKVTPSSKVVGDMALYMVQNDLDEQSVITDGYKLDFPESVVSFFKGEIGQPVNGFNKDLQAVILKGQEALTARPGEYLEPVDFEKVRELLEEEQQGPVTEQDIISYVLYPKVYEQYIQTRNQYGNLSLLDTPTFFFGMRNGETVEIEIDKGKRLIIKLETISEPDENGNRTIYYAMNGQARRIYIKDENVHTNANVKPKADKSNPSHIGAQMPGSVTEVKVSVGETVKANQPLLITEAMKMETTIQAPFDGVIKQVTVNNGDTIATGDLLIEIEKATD

[3] = species: Homo sapiens; experiment: Inhibition of MDH (unknown origin)
[4] = biological target: T1, Pyruvate carboxylase; experiment: Mixed type inhibition of Staphylococcus aureus pyruvate carboxylase assessed as inhibition constant pretreated with pyruvate followed by ATP, HCO3- and NADH addition by steady state kinetic analysis
[5] = system: Pseudomonas syringae; experiment: Inhibition of Pseudomonas syringae guanidine carboxylase using urea as substrate at 200 uM by coupled enzyme assay
[6] = biological target: Carbonic anhydrase 2 (Homo sapiens) (UniProt P00918); experiment: Inhibition of human CA2 at 200 uM
[7] = biological target: T1, Pyruvate carboxylase; experiment: Non-competitive inhibition of Staphylococcus aureus pyruvate carboxylase assessed as inhibition constant pretreated with ATP followed by pyruvate, HCO3- and NADH addition by steady state kinetic analysis
[8] = biological target: T1, Pyruvate carboxylase; experiment: Inhibition of Staphylococcus aureus pyruvate carboxylase by FVB based high-throughput fixed time assay
[9] = biological target: T1, Pyruvate carboxylase; experiment: Mixed type inhibition of Staphylococcus aureus pyruvate carboxylase assessed as inhibition constant pretreated with ATP followed by pyruvate, HCO3- and NADH addition by steady state kinetic analysis

Macrophage metalloelastase (Homo sapiens), sequence (P39900 106-470 limits assumed): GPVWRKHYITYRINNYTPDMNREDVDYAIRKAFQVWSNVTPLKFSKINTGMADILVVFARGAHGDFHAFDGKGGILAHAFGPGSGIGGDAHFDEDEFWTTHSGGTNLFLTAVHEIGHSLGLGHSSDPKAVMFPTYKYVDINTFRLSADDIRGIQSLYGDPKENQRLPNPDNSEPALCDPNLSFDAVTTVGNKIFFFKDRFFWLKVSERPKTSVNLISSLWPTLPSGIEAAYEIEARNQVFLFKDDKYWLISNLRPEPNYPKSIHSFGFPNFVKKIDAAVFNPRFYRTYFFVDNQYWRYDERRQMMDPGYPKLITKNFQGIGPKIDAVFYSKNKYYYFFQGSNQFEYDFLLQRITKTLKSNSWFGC

| inhibition [1] | pIC50 [2] | inhibition [3] | pKi [4] | inhibition [5] | inhibition [6] | pKi [7] | pIC50 [8] | pKi [9] | SMILES |
| --- | --- | --- | --- | --- | --- | --- | --- | --- | --- |
| inactive | 4.52 | inactive | 5.05 | inactive | inactive | 3.85 |  |  | O=C(O)CN1C(=O)C(=O)N(Cc2ccccc2)C1=O |
| inactive | 4.77 | inactive |  | inactive | inactive |  |  |  | COc1ccc(N2C(=O)C(=O)N(Cc3ccccc3)C2=O)cc1 |
|  | 3.43 | inactive |  |  |  |  |  |  | O=C1C(=O)N(c2ccccc2)C(=O)N1CCc1ccccc1 |
|  | 3.54 | inactive |  |  |  |  |  |  | O=C1C(=O)N(c2ccc(Br)cc2)C(=O)N1Cc1ccccc1 |
|  | 4.04 | inactive |  |  |  |  |  |  | O=C1C(=O)N(c2ccccc2)C(=O)N1CCc1cccs1 |
| inactive | 4.19 | inactive | 4.62 | inactive | inactive | 3.82 |  |  | O=C1C(=O)N(c2ccccc2)C(=O)N1Cc1ccccc1 |

The remaining lines, values behind:

| SMILES | inhibition [1] | pIC50 [2] | inhibition [3] | pKi [4] | inhibition [5] | inhibition [6] | pKi [7] | pIC50 [8] | pKi [9] |
| --- | --- | --- | --- | --- | --- | --- | --- | --- | --- |
| CCOC(=O)CN1C(=O)C(=O)N(Cc2cccs2)C1=O | inactive | 5.28 | inactive | 5.74 | inactive | inactive | 4.85 |  |  |
| CCOC(=O)CN1C(=O)C(=O)N(Cc2ccco2)C1=O | inactive | 4.92 | inactive |  | inactive | inactive |  |  |  |
| CCOC(=O)CCN1C(=O)C(=O)N(c2ccc(F)cc2)C1=O | inactive | 4.54 | inactive |  | inactive | inactive |  |  |  |
| COC(=O)CCN1C(=O)C(=O)N(Cc2ccccc2)C1=O |  | 4.17 | inactive |  |  |  |  |  |  |
| O=C1C(=O)N(C2CCCc3ccccc32)C(=O)N1c1ccccc1 (configuration not stated) |  | 4.23 | inactive |  |  |  |  |  |  |
| CCCOC(=O)CN1C(=O)C(=O)N(c2ccccc2)C1=O | inactive | 5.30 | inactive |  | inactive | inactive |  |  |  |
| COC(=O)CN1C(=O)C(=O)N(c2ccccc2)C1=O |  | 5.46 | inactive |  |  |  |  |  |  |
| CCOC(=O)CN1C(=O)C(=O)N(CC(=O)OCC)C1=O |  | 5.05 | inactive |  |  |  |  |  |  |
| CC(c1ccccc1)N1C(=O)C(=O)N(c2ccccc2)C1=O (configuration not stated) |  | 4.46 | inactive |  |  |  |  |  |  |
| CN1C(=O)C(=O)N(CC(=O)c2cccs2)C1=O | inactive | 4.35 | inactive | 5.28 | inactive | inactive | 4.42 | 4.46 |  |
| CCOC(=O)CN1C(=O)C(=O)N(c2ccccc2)C1=O | inactive | 5.29 | inactive |  | inactive | inactive |  |  |  |
| CCOC(=O)CN1C(=O)C(=O)N(CCc2ccccc2)C1=O | inactive | 5.03 | inactive |  | inactive | inactive |  |  |  |
| CCOC(=O)CN1C(=O)C(=O)N(Cc2ccccc2)C1=O | inactive | 5.14 | inactive | 6.24 | inactive | inactive |  |  | 5.15 |
| CCOC(=O)CN1C(=O)C(=O)N(CCc2cccs2)C1=O | inactive | 5.10 | inactive |  | inactive | inactive |  |  |  |
| CCOC(=O)CN1C(=O)C(=O)N(c2ccc(F)cc2)C1=O | inactive | 5.47 | inactive |  | inactive | inactive |  |  |  |
